According to patent publication US4177271A, “Hydroxy- and oxo-substituted α-benzylidenylcycloalkanes” (Unicler, priority 1977, dated 1979):

Key:
[1] = test system: mice; assay: Acute toxicity (LD50), mice, intraperitoneal route, Log-Probits method of Miller and Tainter; format: in vivo
Procedure: (§1) The LD50 of the products was determined in mice by the intraperitoneal route according to the "Log-Probits" method of Miller and Tainter (Proc. Soc. Exptl. Biol. Med. 1944; 57, 261-264).

[2] = test system: hexobarbital-induced narcosis; assay: Modification (potentialisation) of hexobarbital-induced narcosis in mice; format: in vivo; conditions: Mus musculus, sodium hexobarbital 70 mg/kg IP half an hour later, read-out: Narcosis potentialisation, T (percentage increase in sleep time induced by hexobarbital); for change in vivo at 200 mg/kg: 200 mg/kg IP; for change in vivo at 10 mg/kg: 10 mg/kg IP; for change in vivo at 100 mg/kg: 100 mg/kg IP
Procedure: (§2) This was investigated by observing the behaviour of the animal by studying the modification in hexobarbital-induced narcosis and antagonism vis-a-vis reserpine.
Mice, each weighing about 20 g, received intraperitoneally the product being investigated. Half an hour later sodium hexobarbital was injected by the same route at a dosage of 70 mg/kg.
The animals were placed on a hot plate maintained at a constant temperature of 27° C. Sleep is considered to have occurred as soon as a mouse, placed in the dorsal decubitus position, is incapable of turning over onto its paws.
The narcosis potentialisation is evaluated from the percentage increase in sleep time induced by hexobarbital (T).

[3] = test system: blepharospasm produced by reserpine; assay: Antagonism vis-a-vis reserpine (blepharospasm) in mice; format: in vivo, Swiss male mice; set-up: key: The inhibition of blepharospasm is recorded from 0 to +++; The inhibition of blepharospasm is recorded from 0 to +++; conditions: reserpine 5 mg/kg IP
Procedure: as §2
(Chen G., and Bohner B., (1961) J. pharmacol Exptl. Therap. 131, 179).
Reserpine when administered intraperitoneally to mice in a dosage of 5 mg/kg causes the eyelids to close more or less completely in the majority of animals. The administration of certain products will inhibit the blepharospasm produced by reserpine.
Swiss male mice are distributed into groups of 10 mice, and each experiment includes at least 3 groups:
a control group that receives only the solvent and reserpine
a group treated with a reference product (we chose Imipramine)
a treated group that receives the product being tested.
The products under investigation are administered intraperitoneally at 30 minutes or 2 hours before intraperitoneal injection of reserpine in a dosage of 5 mg/kg, so as to study their activity as a function of time.
The degree of ptosis for each eye and each animal is observed every 30 minutes for 4 to 5 hours, using RUBIN's score method. The activity of the product is determined by comparison with the result obtained with the treated control group. The inhibition of blepharospasm is recorded from 0 to +++.

[4] = Acute toxicity (LD50), mice, intraperitoneal route, Log-Probits method of Miller and Tainter; format: in vivo; conditions: mouse, in vivo, ip
Procedure: as §1

[5] = test system: central nervous system; assay: Activity on the central nervous system (overall conclusion); set-up: species or system mice; conditions: mouse, in vivo
Description: as §2

Compound | change in vivo at 200 mg/kg [2] [%] | LD50 [4] [mg/kg] | Blepharospasm (inhibition) ([3]; 200 mg/kg IP) | other results
CC1CCCC(=Cc2cc3c(cc2Cl)OCO3)C1=O (centres unmarked) [compound 1274] | 99 |  |  | DL0 (IP) [1]: ≥ 2000 mg/kg
CN1CCN(CC2(C)CCCC(=Cc3ccc4c(c3)OCO4)C2=O)CC1 (centres unmarked) [compound 1352] |  | 150 |  | Blepharospasm (inhibition) ([3]; 15 mg/kg IP): 0; change in vivo at 15 mg/kg ([2]; 15 mg/kg IP): 0%
OC1C(=Cc2ccc3c(c2)OCO3)CCc2ccccc21 (centres unmarked) [compound 1388] | 10 |  | 0 | DL0 (IP) [1]: > 200 mg/kg
COc1cc(C=C2CCCC(C)C2O)cc(OC)c1OC (centres unmarked) [compound 1269] |  | 1100 |  | Blepharospasm (inhibition) ([3]; 110 mg/kg IP): 0; change in vivo at 110 mg/kg ([2]; 110 mg/kg IP): 66%
CC1CCC(=O)C(=Cc2ccc3c(c2)OCO3)C1 (centres unmarked) [compound 994] | 103 | 2000 | 0 | 
CN(C)CC1(C)CCCC(=Cc2ccc3c(c2)OCO3)C1O (centres unmarked) [compound 1349] |  | 100 |  | change in vivo at 10 mg/kg [2]: 10%
OC1C(=Cc2ccc3c(c2)OCO3)CCCC1CN1CCOCC1 (centres unmarked) [compound 1347] |  | 1000 |  | change in vivo at 100 mg/kg [2]: 60%
O=C1C(=Cc2ccc3c(c2)OCO3)CCc2ccccc21 [compound 1293] | 30 |  | 0 | DL0 (IP) [1]: ≥ 2000 mg/kg
COc1ccc(C=C2CCCC(C)C2=O)c(OC)c1OC (centres unmarked) [compound 1270] |  | 1000 |  | 
CC1CC(=Cc2ccc3c(c2)OCO3)C(=O)C(=Cc2ccc3c(c2)OCO3)C1 (centres unmarked) [compound 1059] | 0 |  | 0 | DL0 (IP) [1]: ≥ 2000 mg/kg
CC1CCCC(=Cc2cc3c(cc2Cl)OCO3)C1O (centres unmarked) [compound 1275] | 56 | 2000 | 0 | 
COc1ccc(C=C2CCCC(C)C2=O)cc1OC (centres unmarked) [compound 1266] |  | 700 |  | Blepharospasm (inhibition) ([3]; 70 mg/kg IP): 0; change in vivo at 70 mg/kg ([2]; 70 mg/kg IP): 0%
O=C1CCCC1=Cc1ccc2c(c1)OCO2 [compound 1386] |  | 1300 |  | Blepharospasm (inhibition) ([3]; 130 mg/kg IP): 0; change in vivo at 130 mg/kg ([2]; 130 mg/kg IP): 190%
CC1CCCC(=Cc2ccc3c(c2)OCO3)C1O (centres unmarked) [Code No. 1040, 2-(3,4-methylenedioxybenzylidene)-6-methylcyclohexanol or 2-piperonylidene-6-methylcyclohexanol] |  | 1000 |  | usefulness as an anti-depressant [5]: particularly useful as an anti-depressant; change in vivo at 100 mg/kg [2]: 174%
CN1CC(=Cc2ccc3c(c2)OCO3)C(O)C(=Cc2ccc3c(c2)OCO3)C1 (centres unmarked) [compound 1324] | 83 |  | 0 | DL0 (IP) [1]: ≥ 2000 mg/kg
COc1cc(C=C2CCCC(C)C2=O)cc(OC)c1OC (centres unmarked) [compound 1268] |  | 1000 |  | change in vivo at 100 mg/kg [2]: 60%
CC1CCC(O)C(=Cc2ccc3c(c2)OCO3)C1 (centres unmarked) [compound 1446] |  | 1500 |  | 
OC1C(=Cc2ccc3c(c2)OCO3)Cc2ccccc21 (centres unmarked) [compound 1322] |  | 1500 |  | Blepharospasm (inhibition) ([3]; 150 mg/kg IP): 0; change in vivo at 150 mg/kg ([2]; 150 mg/kg IP): 116%
COc1ccc(C=C2CCCC(C)C2O)cc1OC (centres unmarked) [compound 1267] |  | 900 |  | 
COc1ccc(C=C2CCCC(C)C2O)c(OC)c1OC (centres unmarked) [compound 1271] |  | 500 |  | Blepharospasm (inhibition) ([3]; 50 mg/kg IP): 0; change in vivo at 50 mg/kg ([2]; 50 mg/kg IP): 0%
O=C1C(=Cc2ccc3c(c2)OCO3)Cc2ccccc21 [compound 1292] | 62 |  | 0 | DL0 (IP) [1]: ≥ 2000 mg/kg
OC1CCCC1=Cc1ccc2c(c1)OCO2 (centres unmarked) [compound 1387] |  | 100 |  | Blepharospasm (inhibition) ([3]; 10 mg/kg IP): 0; change in vivo at 10 mg/kg [2]: 40%
CC1CCCC(=Cc2ccc3c(c2)OCO3)C1=O (centres unmarked) [compound 993] | 385 | 2000 | 0 | 
